{"source": "patent US20170014524A1", "about": "“AURISTATIN-ANTIBODY CONJUGATES AND USES THEREOF” (The California Institute for Biomedical Research, priority 2015, published 2017)", "format_in_all_cases": "cell-based", "details_in_all_cases": "600 nM to 30 pM, 4 days at 37° C.", "key": {"Ramos (CXCR4+) cells": {"test_system": "Ramos (CXCR4+) cells", "experiment": "Cytotoxicity (CellTiter-Glo cell viability, 4 days) in Ramos cells", "protocol": "(§1) Cell viabilities were measured by addition of CellTiter-Glo (Promega) and the luminescent signals were read by EnVision plate reader.\n(§2) The following illustrative examples are representative of embodiments of the compositions and methods described herein and are not meant to be limiting in any way. All cell lines were purchased from ATCC unless otherwise stated. Ramos, Jurkat, OPM-2 cells were cultured in RPMI with 10% FBS and 100 U/mL Penicillin Streptomycin. MDA-MB-231 cells were cultured in DMEM (high glucose) with 10% FBS, 1 mM sodium pyruvate, and 100 U/mL Penicillin Streptomycin. SKBR-3 cells were cultured in DMEM with 10% FBS and 1x Antibiotic-Antimycotic (100 U/mL Penicillin Streptomycin, 0.25 μg/mL Fungizone). […]\n(§3) Ramos (CXCR4+), Jurkat (CXCR4+), and MDA-MB-231 (CXCR4−) cells were treated with either small molecule drugs, anti-CXCR4 (SEQ ID NOS: 3, 4), or anti-CXCR4-auristatin conjugates with concentrations ranging from 600 nM to 30 pM for 4 days at 37° C. Cell viabilities were measured by addition of CellTiter-Glo (Promega) and the luminescent signals were read by EnVision plate reader.\n(§4) Briefly, 1000 cells/well were seeded in a 384-well plate (45 uL/well with their corresponding media) and incubated at 37° C. overnight. […] Plates were shaken and incubated for at least 10 min before the generated luminescent signals were read using PerkinElmer EnVision Multilabel Reader."}, "[1]": {"test_system": "MDA-MB-231 (CXCR4−) cells", "experiment": "Cytotoxicity (CellTiter-Glo cell viability, 4 days) in MDA-MB-231 cells", "protocol": "as §1, §2, §3, §4"}, "Jurkat (CXCR4+) cells": {"test_system": "Jurkat (CXCR4+) cells", "experiment": "Cytotoxicity (CellTiter-Glo cell viability, 4 days) in Jurkat cells", "protocol": "as §1, §2, §3, §4"}}, "note": "Where a SMILES comes first, the peptide text is derived from it. [ ]: non-standard residue; d: D form. The star is where a group is joined. Dolaproine = CO[C@@H]([C@@H]1CCCN1)[C@@H](C)C(=O)O; Dil = CC[C@H](C)[C@H](NC)[C@@H](CC(=O)O)OC; Doe = c1ccc(C[C@H](N*)c2nccs2)cc1; NMeV = CN[C@H](C(=O)O)C(C)C", "data": [{"smiles": "CC[C@H](C)[C@@H]([C@@H](CC(=O)N1CCC[C@H]1[C@H](OC)[C@@H](C)C(=O)N[C@@H](Cc1ccccc1)c1nccs1)OC)N(C)C(=O)[C@@H](NC(=O)[C@@H](NC)C(C)C)C(C)C", "note": "[MMAD, monomethyl auristatin D] (H-[NMeV]V[Dil][Dolaproine]-Doe)", "values": [{"measurement": "IC50", "setting": "Ramos (CXCR4+) cells", "result": 1.4, "unit": "nM"}, {"measurement": "IC50", "setting": "[1]", "result": 5.2, "unit": "nM"}, {"measurement": "IC50", "setting": "Jurkat (CXCR4+) cells", "result": 2.8, "unit": "nM"}]}]}
